This note sets out measurements from PubChem BioAssay AID1117359 (Southern Research Institute, 2015).

SMILES strings stand for the structures.

In the assay the test system is THP-1 viability, CellTiter-Glo luminescence, 72 h. The assay is described as follows: viability loss in THP-1 monocytes – THP-1 cells, cytotoxicity control for Vif-APOBEC3G degradation inhibitor project, dose response (AID 1117359).
As for `O=[N+]([O-])c1c(NCCO)cc(Sc2nc3ccccc3s2)c2nonc12`, the CC50 is 17.9 µM.

Turning to `CCOC(=O)C(C(=O)OCC)c1cc(Br)c2noc3c2c1C(=O)c1ccccc1-3`, the CC50 was 9.78 µM.

On to `CCOc1cc(CNc2ccc(O)cc2)ccc1OCc1ccc(Cl)cc1Cl`, for which the CC50 is 8.81 µM.

As to `CCN=c1scc(C)n1/N=C/c1ccc(O)c(O)c1O`, the CC50 was 19.9 µM.

For the compound `CSc1nc(N(CCO)CCO)c2sc3nc(-c4ccco4)c4c(c3c2n1)CCC4`, the CC50 is 19.8 µM.

Consider `Oc1ccc(N=Cc2ccc(O)c(O)c2)cc1`, for which the CC50 is 13 µM.

As for `Oc1ccc(/C=N/NP(=S)(c2ccccc2)c2ccccc2)c(O)c1O`, the CC50 was 38.3 µM.

For `COC(C(=O)C(O)C(C)O)C1Cc2cc3cc(OC4CC(OC5CC(O)C(O)C(C)O5)C(O)C(C)O4)c(C)c(O)c3c(O)c2C(=O)C1OC1CC(OC2CC(OC3CC(O)C(OC)C(C)O3)C(O)C(C)O2)C(O)C(C)O1` (stereo not drawn), the CC50 is less than 0.08 µM.
